Key:
corn seeds [1] = experiment: Seed treatment of corn seeds with flonicamid combinations: root length and fresh weight of seedlings; format: in vivo, Zea mays; conditions: 5 ml/kg of seed; for Fresh weight: seedlings
Protocol: (§1) 7 kg of untreated clean seeds of Zea mays were collected. The seeds were 5 mixed thoroughly in a tray to make them homogeneous. 21 sub-samples of 300 g each were prepared. A polythene bag was used for the treatment of each sample with flonicamid combinations. The formulation was used at a dosage of 5 ml/kg of seed. Before treating, the seeds were checked for their initial moisture content and minimum germination percentage. After the treatment, the treated seeds were dried in a hot air chamber having temperature of 40-43° C. to maintain their original moisture content. Table 5 discloses the effect on root length and Table 6 discloses fresh weight of the seedlings.

corn seeds [2] = experiment: Germination index of treated corn seeds by petri dish method; format: in vivo, Zea mays; conditions: 5 ml/kg of seed
Protocol: as §1, with “were” for “were 5”, “Table 10” for “Table 5”, “the germination index” for “the effect on root length and Table 6 discloses fresh weight”, “of corn seeds by petri dish method.” for “of the seedlings.”

| SMILES | Root length (corn seeds [1]) [cm] | Germination index (corn seeds [2]; 4th day) | Germination index (corn seeds [2]; 7th day) | Fresh weight (corn seeds [1]) [g] |
| --- | --- | --- | --- | --- |
| CC1=C(C(=O)Nc2ccccc2)SCCO1 [Carboxin 200 g/L, carboxin] | 14.25 | – | – | – |
| CNC(=O)c1cc(Cl)cc(C)c1NC(=O)c1cc(Br)nn1-c1ncccc1Cl [Chlorantraniliprole 120 g/L, Chlorantraniliprole] | – | 7 | 1 | – |
| CNC(=O)c1cc(C#N)cc(C)c1NC(=O)c1cc(Br)nn1-c1ncccc1Cl [Cyantraniliprole 120 g/L, Cyantraniliprole] | 14.25 | 7 | 3 | 20.92 |
| N#CCNC(=O)c1cnccc1C(F)(F)F [Flonicamid 240 g/L, N-cyanomethyl-4-trifluoromethylnicotinamide] | – | 7 | 3 | – |
| N#CCNC(=O)c1cnccc1C(F)(F)F [Flonicamid 360 g/L, N-cyanomethyl-4-trifluoromethylnicotinamide] | 12.5 | 7 | 1 | 22.73 |
| N#Cc1c[nH]cc1-c1cccc2c1OC(F)(F)O2 [Fludioxonil 25 g/L, fludioxonil] | 14 | 8 | 1 | – |
| CC(C)C1CCC(Cc2ccc(Cl)cc2)C1(O)Cn1cncn1 (centres unmarked) [Ipconazole 25 g/L, ipconazole] | – | 7 | 3 | – |
| COCC(=O)N(c1c(C)cccc1C)C(C)C(=O)OC (centres unmarked) [Metalayxl 50 g/L, metalaxyl] | 15 | 7 | 3 | 25.72 |
| CN1COCN(Cc2cnc(Cl)s2)/C1=N\[N+](=O)[O-] [Thiamethoxam] | 11.75 | 7 | 2 | 19.31 |
